The source of these data is patent publication US5182300A, “Furosemide salts” (Roussel Uclaf, priority 1989, dated 1993).

Structures can show the parent of a compound that is named as a salt.

The nature of data set [1]: initial measurement of the pH of the solution. The class given is physicochemical.
For data set [2], the system named is atopic asthmatic patients. As to conditions: aerosol; bronchospasms induced by physical exercises, ultrasonic fogs and immunological stimulations; 10 mg/ml sodium salt solution inhaled for 15 to 20 minutes; cited from earlier work.

On to `NS(=O)(=O)c1cc(C(=O)O)c(NCc2ccco2)cc1Cl` [furosemide salt of L-lysine, L-lysine salt of furosemide], for which the “pH (initial measurement)” value in data set [1] (Sol. 1, water, 97.2 mg/ml) amounted to 7.00; in data set [1] (Sol. 2, physiol. sol., 184.4 mg/ml) it was 7.09; in data set [1] (Sol. 3, water, 275.3 mg/ml) it was 7.32; in data set [1] (Sol. 4, water, 125.0 mg/ml, kept at 60° C.) it was 7.06; in data set [1] (Sol. 5, water, 125.0 mg/ml, kept at 25° C. away from the light) it was 7.06; in data set [1] (Sol. 6, water, 90.4 mg/ml) it was 6.95. The “pH (initial measurement)” value in data set [1] (Sol. 7, water containing 4% by weight of mannitol, 72.1 mg/ml) was found to be 7.06.
Turning to `NS(=O)(=O)c1cc(C(=O)O)c(NCc2ccco2)cc1Cl` [furosemide, 4-chloro-N-furyl-5-sulfamoyl-anthranylic acid], the prevention of bronchospasms entry in data set [2] is reported as “prevent bronchospasms”.
